# Experimental data: patent US20260315461A1, “NEW 5H-PYRROLO[3,2-B:5,4-C']DIPYRIDINE DERIVATIVES AND 6,7,8,9-TETRAHYDRO-5H-PYRROLO[3,2-B:5,4-C']DIPYRIDINE USEFUL IN THE TREATMENT OF CANCER” (INSTITUT REGIONAL DU CANCER DE MONTPELLIER, priority 2023, published 2026)
# Structures can show the parent of a compound that is named as a salt.
# What was measured:
# Hpac/ZR75.1 cells = experiment: Cell survival, Sulforhodamine B assay (SRB assay), cancer cells not exhibiting recruitment of MDM2 to chromatin; assay type: cell-based
# Protocol: (§1) Cell survival after MDM2 inhibitor treatment (IC50) was determined using the Sulforhodamine B assay (SRB assay).
# (§2) Cells were seeded in 96-well plates (Sarsted) in complete DMEM medium as to obtain triplicates for each condition (5 000 cells/well). After 24 hours, serial dilutions of the indicated compounds were added to the cells. Then 48 hours later, cells were fixed by adding a 10% Trichloroacetic acid solution and stained with a 0,4% SRB solution in 1% acetic acid. Fixed SRB was finally dissolved in 10 mM Tris-HCl solution and 560 nm absorbance was read using a PHERAstar FSX plate reader.
# Chromatin-MDM2 = target: T1, Chromatin-MDM2 (Homo sapiens, UniProt Q00987); experiment: MDM2 degradation by western blot and immunofluorescence, chromatin-bound MDM2 (IB111 cells dependent on C-MDM2); assay type: cell-based; details: IB111 (presence of C-MDM2), degradation efficacy; for Dmax: human
# T1 construct: endogenous in cells; host or cells: IB111
# Protocol: (§3) MDM2 degradation is measured by western blot and immunofluorescence.
# (§4) Cells were seeded in 6-well plates (Sarsted) in complete DMEM medium as to obtain triplicates for each condition (500 000 cells/well). After 24 hours, the compounds were added to the cells. Then, 18 hours later cells were collected for western blotting or immunofluorescence. • Western Blot: Cells were collected in Laemmli buffer, boiled and analyzed in 8% acrylamide gel. • Immunofluorescence: Cancer cells were fixed with paraformaldehyde (PFA) 4% for 15 minutes then permeabilized for 15 minutes at RT with phosphate-buffered saline (PBS) Triton 0.1% and blocked with Phosphate buffered saline-[…] (PBS-BSA) 0.3% for 1 hour at RT before overnight incubation at 4° C. with an anti-mouse monoclonal antibody against MDM2 (MABE340 Millipore). Immunodetection was performed using an Alexa 488-conjugated anti-mouse IgG antibody (Thermo Fisher) for 45 minutes at RT. Cover glasses were mounted with Mowiol (Biovalley) and DAPI (Sigma) before analysis on a Zeiss apotome.
# Cytoplasmic-MDM2 = target: T2, Cytoplasmic-MDM2 (Homo sapiens, UniProt Q00987); experiment: MDM2 degradation by western blot and immunofluorescence, cytoplasmic MDM2 (Hpac/ZR75.1 cells, absence of C-MDM2); assay type: cell-based; details: Hpac/ZR75.1 (absence of C-MDM2), degradation efficacy; for Dmax: human
# T2 construct: endogenous in cells; host or cells: Hpac/ZR75.1
# Protocol: as §3, §4
# liposarcoma cells IB111 = experiment: In vivo anti-tumor efficacy in nude mice engrafted with liposarcoma cells IB111; details: 20 mg/kg i.p. daily for 3 weeks, from tumor 100 mm^3
# Protocol: In order to support the in vitro results, in vivo evaluation of the anti-tumor efficacy was performed on compound (4) according to the present invention having evidenced the antitumoral activity in examples 9 and 10 above.
# 10 mice per group were engrafted with liposarcoma cells IB111. Mice were housed in a pathogen-free barrier facility in accordance with the regional ethics committee for animal [COMPOUND LEFT OUT] (n° CEEA-LR-12067). When tumor reached 100 mm^3, the compound of formula (I) was administered by intra peritoneal i.p. injection at the dose of 20 mg/kg daily for 3 weeks.
# IB111 cells = experiment: Cell survival, Sulforhodamine B assay (SRB assay), cancer cells exhibiting recruitment of MDM2 to chromatin; assay type: cell-based
# Protocol: as §1, §2
# [1] = tested on: p53 wild type, p53 mutant and p53 null cancer cells; details: cited from earlier work
# MDM2-p53 interaction = details: WO2016/049453 and Wang et al. 2014; cited from earlier work
# MDM2 protein = details: WO2016/049453 and Wang et al. 2014; cited from earlier work
# T2 sequence (Q00987 whole entry): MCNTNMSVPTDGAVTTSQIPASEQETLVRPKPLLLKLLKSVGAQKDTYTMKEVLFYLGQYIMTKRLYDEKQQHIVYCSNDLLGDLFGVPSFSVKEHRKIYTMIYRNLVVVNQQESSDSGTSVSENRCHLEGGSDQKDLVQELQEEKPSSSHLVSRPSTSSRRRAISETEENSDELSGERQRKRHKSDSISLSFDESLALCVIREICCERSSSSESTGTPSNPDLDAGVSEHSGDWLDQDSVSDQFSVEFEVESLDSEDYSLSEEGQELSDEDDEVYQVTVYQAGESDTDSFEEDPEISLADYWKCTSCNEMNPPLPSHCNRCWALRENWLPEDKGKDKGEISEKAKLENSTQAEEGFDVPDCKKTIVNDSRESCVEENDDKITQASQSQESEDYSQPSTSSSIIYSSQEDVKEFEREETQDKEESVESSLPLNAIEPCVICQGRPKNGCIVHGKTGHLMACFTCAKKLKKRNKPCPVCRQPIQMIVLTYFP
# T1 sequence (Q00987 whole entry): as above
Compound,Dmax (Chromatin-MDM2) [%],Dmax (Cytoplasmic-MDM2) [%],efficacy on cancer cells not exhibiting recruitment of MDM2 to chromatin (cell survival) (Hpac/ZR75.1 cells),Chromatin-MDM2 degradation (Chromatin-MDM2),Cytoplasmic-MDM2 degradation (Cytoplasmic-MDM2),also measured
"COc1ccc2[nH]c3c(-c4cccc5ccccc45)nccc3c2n1 [Compound 1, 2-methoxy-6-(naphthalen-1-yl)-5H-pyrrolo[3,2-b:5,4-c′]dipyridine]",,,not efficient,+++ (+++≥80%),,
"COc1ccc2[nH]c3c(-c4ccnc5nccnc45)nccc3c2n1 [Compound 3, 2-methoxy-6-(pyrido[2,3-b]pyrazin-8-yl)-5H-pyrrolo[3,2-b:5,4-c′]dipyridine]",25 to 40,< 25,,,,
"COc1ccc2[nH]c3c(-c4cccc5ccccc45)nccc3c2n1.Cl [Compound 4, 2-methoxy-6-(naphthalen-1-yl)-5H-pyrrolo[3,2-b:5,4-c′]dipyridine hydrochloride]",,,not efficient,+++ (+++≥80%),− (<25%: no degradation: indicated“−” in the table),tumor reduction (liposarcoma cells IB111): greater than 75%
"COc1ccc2[nH]c3c(-c4cccc5ccccc45)nccc3c2n1.O=C(O)/C=C/C(=O)O [Compound 10, 2-methoxy-6-(naphthalen-1-yl)-5H-pyrrolo[3,2-b:5,4-c′]dipyridine fumarate]",,,not efficient,+++ (+++≥80%),− (<25%: no degradation: indicated“−” in the table),
"COc1ccc2[nH]c3c(-c4cccc5ccccc45)nccc3c2n1.O=C(O)CC(O)(CC(=O)O)C(=O)O [Compound 11, 2-methoxy-6-(naphthalen-1-yl)-5H-pyrrolo[3,2-b:5,4-c′]dipyridine 2-hydroxypropane-1,2,3-tricarboxylate]",,< 25,not efficient,+++ (+++≥80%),,
"COc1ccc2[nH]c3c(-c4cccc5ccccc45)nccc3c2n1.O=P(O)(O)O [Compound 12, 2-methoxy-6-(naphthalen-1-yl)-5H-pyrrolo[3,2-b:5,4-c′]dipyridine phosphate]",,,not efficient,,− (<25%: no degradation: indicated“−” in the table),
"COc1ccc2[nH]c3c(-c4cccc5ccccc45)nccc3c2n1 [Compound 13, 2-methoxy-6-(naphthalen-1-yl)-5H-pyrrolo[3,2-b:5,4-c′]dipyridine sulfate]",,,,,− (<25%: no degradation: indicated“−” in the table),Chromatin-MDM2 degradation (Chromatin-MDM2; sulfate): ++ (40%≤++<80%)
"COc1ccc2[nH]c3c(-c4cccc5c4CCCC5)nccc3c2n1.Cl [Compound 16, 2-methoxy-6-(5,6,7,8-tetrahydronaphthalen-1-yl)-5H-pyrrolo[3,2-b:5,4-c′]dipyridine hydrochloride]",,,not efficient,+++ (+++≥80%),− (<25%: no degradation: indicated“−” in the table),
"COc1ccc2[nH]c3c(-c4ccc(F)c5ccccc45)nccc3c2n1.Cl [Compound 17, 6-(4-fluoronaphthalen-1-yl)-2-methoxy-5H-pyrrolo[3,2-b:5,4-c′]dipyridine hydrochloride]",,,,,− (<25%: no degradation: indicated“−” in the table),
"Cl.Clc1ccc2[nH]c3c(-c4cccc5ccccc45)nccc3c2n1 [Compound 19, 2-chloro-6-(naphthalen-1-yl)-5H-pyrrolo[3,2-b:5,4-c′]dipyridine hydrochloride]",,,not efficient,++ (40%≤++<80%),− (<25%: no degradation: indicated“−” in the table),IC50 (IB111 cells): < 500 nM
"COc1ccc2[nH]c3c(-c4cccc5c(F)cccc45)nccc3c2n1.Cl [Compound 22, 6-(5-fluoronaphthalen-1-yl)-2-methoxy-5H-pyrrolo[3,2-b:5,4-c′]dipyridine hydrochloride]",,,,+ (25%≤+<40%),− (<25%: no degradation: indicated“−” in the table),
"Cl.c1ccc2c(-c3nccc4c3[nH]c3ccc(OC5CC5)nc34)cccc2c1 [Compound 25, 2-cyclopropoxy-6-(naphthalen-1-yl)-5H-pyrrolo[3,2-b:5,4-c′]dipyridine hydrochloride]",,,not efficient,+++ (+++≥80%),− (<25%: no degradation: indicated“−” in the table),
COc1ccc2[nH]c3c(-c4cccc5ccccc45)nccc3c2c1 [SP-141],,,,,,"anticancer activity [1]: able to exert anticancer activity in p53 wild type, p53 mutant and p53 null cancer cells; inhibition of the MDM2-p53 interaction (MDM2-p53 interaction): inhibiting the MDM2-p53 interaction; binding to MDM2 protein (MDM2 protein): directly binding to MDM2 protein"

# Continued, in another order:
Dmax (Chromatin-MDM2) [%],Dmax (Cytoplasmic-MDM2) [%],Compound,efficacy on cancer cells not exhibiting recruitment of MDM2 to chromatin (cell survival) (Hpac/ZR75.1 cells),Chromatin-MDM2 degradation (Chromatin-MDM2),Cytoplasmic-MDM2 degradation (Cytoplasmic-MDM2),also measured
25 to 40,< 25,"COc1ccc2[nH]c3c(-c4ccnc5ccccc45)nccc3c2n1 [Compound 6, 2-methoxy-6-(quinolin-4-yl)-5H-pyrrolo[3,2-b:5,4-c′]dipyridine]",,,,
≥ 80,< 25,"COc1ccc2[nH]c3c(-c4cccc5c4CCCC5)nccc3c2n1 [Compound 14, 2-methoxy-6-(5,6,7,8-tetrahydronaphthalen-1-yl)-5H-pyrrolo[3,2-b:5,4-c′]dipyridine]",not efficient,,,
40 to 80,< 25,"COc1ccc2[nH]c3c(-c4ccc(F)c5ccccc45)nccc3c2n1 [Compound 15, 6-(4-fluoronaphthalen-1-yl)-2-methoxy-5H-pyrrolo[3,2-b:5,4-c′]dipyridine]",not efficient,,,
25 to 40,< 25,"Clc1ccc2[nH]c3c(-c4cccc5ccccc45)nccc3c2n1 [Compound 18, 2-chloro-6-(naphthalen-1-yl)-5H-pyrrolo[3,2-b:5,4-c′]dipyridine]",,,,
40 to 80,< 25,"COc1ccc2[nH]c3c(-c4cc(F)cc5ccccc45)nccc3c2n1.Cl [Compound 20, 6-(3-fluoronaphthalen-1-yl)-2-methoxy-5H-pyrrolo[3,2-b:5,4-c′]dipyridine hydrochloride]",not efficient,,,IC50 (IB111 cells): < 500 nM
25 to 40,< 25,"COc1ccc2[nH]c3c(-c4cccc5c(F)cccc45)nccc3c2n1 [Compound 21, 6-(5-fluoronaphthalen-1-yl)-2-methoxy-5H-pyrrolo[3,2-b:5,4-c′]dipyridine]",,,,
25 to 40,< 25,"COc1ccc2[nH]c3c(-c4cccc5cccc(F)c45)nccc3c2n1 [Compound 23, 6-(8-fluoronaphthalen-1-yl)-2-methoxy-5H-pyrrolo[3,2-b:5,4-c′]dipyridine hydrochloride]",,,,
≥ 80,< 25,"c1ccc2c(-c3nccc4c3[nH]c3ccc(OC5CC5)nc34)cccc2c1 [Compound 24, 2-cyclopropoxy-6-(naphthalen-1-yl)-5H-pyrrolo[3,2-b:5,4-c′]dipyridine]",not efficient,,,IC50 (IB111 cells): < 500 nM
